Where two headings read alike, the source gives them in different places.
What was measured:
[1] = test system: platelet aggregation (guinea pig PRP, extra vivo); assay: Inhibitory effect of compounds on platelet aggregation in extra vivo (Table 4); set-up: species or system Hartley-strain guinea pigs; conditions: Cavia porcellus, 10 mg/kg SC, 1 h after administration
carrageenan edema = assay: Antiinflammatory activity (carrageenan edema of rat paw, Table 5); assay type: in vivo, Sprangue-Dawley (SD) male rats; conditions: 100 mg/kg orally, 3 h after 1% carrageenan
Procedure: Sprangue-Dawley (SD) male rats with a body weight of 160 to 180 g, four in each group, were used. The volume of the left leg was measured, and each of the test compounds shown in Table 5 (100 mg/kg dissolved in polyethylene glycol so as to provide a volume of 2 ml/kg) was orally administered. One hour later, 0.1 ml of 1% carrageenan (dissolved in physiological saline) as an inflammation-inducing substance was subcutaneously injected to the paw of the left hind leg. A control group was orally administered with 2 ml/kg of polyethylene glycol. As a positive control, 25 mg/kg of Ibprofen was similarly administered. Three hours after the injection of 1% carrageenan, the volume of the left leg was measured, and the ratio of edema was calculated from the volume before the administration of the carrageenan. The percent inhibition of edema in comparison with the control group was determined.

[2] = test system: biosynthesis of prostaglandins (microsomes of the seminal vesicle of bovine); assay: Inhibitory effect on prostaglandin biosynthesis in vitro (Table 3); assay type: biochemical; conditions: 4 μg/ml sodium arachidonate, bioassay on rat fundus stomach strips
Procedure: Sprangue-Dawley rats (male, 180-200 g) were fasted overnight, and killed by blow on the head. The stomach was isolated, and fundus stomach strips were prepared. The smooth muscle strips were perfused with Krebs-Hensleit solution (gassed with 95% O2 +5% CO2 gas) of 37° C. at a rate of […]. The Krebs-Hensleit solution contained 0.1 μg/ml of atropine, 0.1 μg/ml of phenoxybenzamine, 3 μg/ml of propranolol, 0.1 μg/ml of tripelennamine, and 0.2 μg/ml of methylsergide to prevent the effect of smooth muscle contracting substances, and 1 μg/ml of indomethacine to inhibit the biosynthesis of prostaglandin by the smooth muscles. Then, 150 μl of a reaction solution containing biologically synthesized prostaglandin was added to the perfusion solution, and the amount of the biologically synthesized prostaglandin was measured from the contraction of the smooth muscles. The contraction of the smooth muscles was recorded on a recorder using an isotonic transducer.
The reaction solution containing biologically synthesized prostaglandin was prepared in the following manner.
To 0.4 mg/ml of microsomes of the seminal vesicle of bovine were added 5 mM of L-tryptophan, 0.025 μM of bovine hemoglobin and 3 mμ of glutathione as cofactors. The mixture was incubated together with each of the test compounds shown in Table 4 at 37° C. for 2 minutes, and immediately then, 4 μg/ml of sodium arachidonate was added. The mixture was further incubated at 37° C. for 10 minutes, and immediately then, the prostaglandin activity of the reaction solution was measured by bioassay.
The microsomes of the seminal vesicle of bovine had been prepared by suspending microsomes of the seminal vesicle of bovine (a product of Miles Laboratories, Inc.) in a 50 mM Tris.HCl buffer (pH 7.4) using a glass homogenizer, and stored in ice water prior to use.
ID50 denotes the concentration of each test compound required to inhibit the biosynthesis of prostaglandins by 50%.

ICR male mice = assay: Acute toxicity (Table 6); assay type: in vivo; conditions: 10 days
Procedure: (§1) ICR male mice with a body weight of 24 to 27 g (5 to 6 per group) were used. Each test compound was dissolved in propylene glycol in various concentrations, and administered orally (in a volume of 0.1 to 0.05 ml/10 g), subcutaneously (in a volume of 0.1 to 0.05 ml/10 g), or intraperitoneally (in a volume of 0.05 ml/10 g) to the mice. […] The LD50 (50% lethal dose) of each test compound was determined by the Litchfield-Wilcoxon method.
(§2) The denominator indicates the number of mice used, and the numerator, the number of dead mice.

Acute toxicity (Table 6) = assay type: in vivo; conditions: mouse, in vivo, mice, Litchfield-Wilcoxon, read-out: LD50 (50% lethal dose)
Procedure: as §1, §2

[3] = test system: platelet aggregation (guinea pig PRP, extra vivo); assay: Inhibitory effect of compounds on platelet aggregation in extra vivo (Table 4); set-up: species or system Hartley-strain guinea pigs; conditions: Cavia porcellus, 100 mg/kg PO, 1 h after administration
Procedure: The effect of the compounds shown in Table 4 on platelet aggregation was assessed using guinea pig in extra vivo.
Each of the test compounds was dissolved in propylene glycol so that its concentration became 100 mg/ml (dosage corresponded to 100 mg/kg) and 30 mg/ml (dosage corresponded to 30 mg/kg). The drug solution was administered either orally or subcutaneously to Hartley-strain guinea pigs (3 per group) having a body weight of 300 to 350 g. As a control, propylene glycol was administered. One hour after the administration, citrated blood was taken out by cardiac puncture, and centrifuged to obtain PRP (see Example 67).
In the case of oral administration, the animals had been fasted overnight.
Into a quvett set in a holder of an aggregometer and prewarmed at 37° C. with stirring, was put 450 μl of the above PRP, and then 50 μl of an aggregating agent was added. The aggregation curve was recorded for an additional 3 minutes, and an increase in light transmittance through PRP after 3 minutes (TB) was recorded (see Example 67). As a control, an increase of transmittance of PRP taken from a guinea pig group administered with propylene glycol alone (TA) was recorded in the same way above. The percent inhibitions were calculated in accordance with the following equation. [formula]
As the aggregating agent, sodium arachidonate (a final concentraton of 0.03 mM) and a collagen suspension (a final concentration of 5 μg/ml) were used.
The percent inhibitions in the above table are averages of three guinea pigs. For details of the above extra vivo test about inhibition of platelet aggregation, the literature references described in Example 67 may be referred to.

[4] = collagen 5 μg/ml, read-out: Percent inhibition of platelet aggregation, collagen
[5] = sodium arachidonate 0.03 mM, read-out: Percent inhibition of platelet aggregation, sodium arachidonate

Cc1cc(C(=O)c2ccccc2)c(C)n1CC(C)O (stereo not drawn) [Compound 102, 2-(3-benzoyl-2,5-dimethylpyrrol-1-yl)-1-methylethanol]
inhibition at 10 mg/kg [1, 4]: 79%
inhibition at 10 mg/kg [1, 5]: 99%
Percent inhibition of edema (carrageenan edema): 8%
ID50 (concentration required to inhibit the biosynthesis of prostaglandins by 50%) [2]: 11.9 µg/mL
mortality (dead mice / mice used) (ICR male mice; intraperitoneal, 62.5 mg/kg): 0/5
mortality (dead mice / mice used) (ICR male mice; intraperitoneal, 125 mg/kg): 4/5
mortality (dead mice / mice used) (ICR male mice; intraperitoneal, 250 mg/kg): 5/5
mortality (dead mice / mice used) (ICR male mice; intraperitoneal, 500 mg/kg): 5/5
mortality (dead mice / mice used) (ICR male mice; peroral, 1000 mg/kg): 0/6
mortality (dead mice / mice used) (ICR male mice; peroral, 2000 mg/kg): 0/6
mortality (dead mice / mice used) (ICR male mice; peroral, 3000 mg/kg): 0/6
mortality (dead mice / mice used) (ICR male mice; peroral, 4000 mg/kg): 1/6
mortality (dead mice / mice used) (ICR male mice; subcutaneous, 4000 mg/kg): 0/5
LD50 at 240 h (Acute toxicity (Table 6); ip, intraperitoneal): 110 mg/kg
LD50 at 240 h (Acute toxicity (Table 6); po, peroral): > 4000 mg/kg
LD50 at 240 h (Acute toxicity (Table 6); sc, subcutaneous): > 4000 mg/kg
inhibition at 100 mg/kg [3, 4]: 29 to 55%
inhibition at 100 mg/kg [3, 5]: 54 to 89%
